# Measurements as given in US20110117227A1, “COSMETIC COMPOSITION FOR ANTI-AGING OF THE SKIN COMPRISING PHASEOLUS RADIATUS SEED EXTRACTS BY FERMENTATION AND ENZYME TREATMENT” (COREANA COSMETICS, CO., LTD., priority 2008, published 2011).
# Experiments:
# Format in all cases: cell-based
# [1] = system: Human skin cells, fibroblasts; assay: Alleviation of cell irritation caused by lactic acid (MTT cell survival); details: lactic acid 0.2% only (comparative control), 12 hours
# Experimental: Human skin cells, fibroblasts (KCTC, Korean Collection for Type Culture, Korea), were cultured in T-75 flask (Falcon, USA) until the cell confluency reached 80%. The cells were transferred to a 96-well plate (Falcon, USA) at the density of 3×10^4 cells/well, followed by further culture for 24 hours. After the culture, the cells were observed under microscope if they were completely adhered and well-grown. As a stimulus for skin, lactic acid (0.2%) was used. Particularly, 200 μl of each DMEM supplemented with 0.2% lactic acid and DMEM not-containing lactic acid was added to each well, to which the Phaseolus radiatus extract, the Phaseolus radiatus liquor of yeast-fermentation, the Phaseolus radiatus liquor of lactic acid bacterium-fermentation, the Phaseolus radiatus extract of enzyme treatment-yeast fermentation, the Phaseolus radiatus extract of enzyme treatment-lactic acid bacterium fermentation (Comparative Manufacturing Examples 1-5), and the Phaseolus radiatus extract of fermentation-enzyme treatment (Manufacturing Examples 1 and 2) were added thereto at the concentration of 1.0% (v/v). […] Particularly, MTT (Sigma, USA) solution (3 mg/ml) was added thereto and then Absorbance at 570 nm was measured using ELISA reader (Molecular Devices, USA).
# Human normal fibroblasts [2] = assay: Collagen biosynthesis (procollagen type I C-peptide level) in human normal fibroblasts; details: positive control 250 uM, PICP
# Experimental: Human normal fibroblasts were inoculated in a 48-well microplate ([…]) containing DMEM (Dulbecco's Modified Eagle Medium), followed by culture at 37° C. for 24 hours. […] After the culture, supernatant of each well was collected and procollagen type I C-peptide (PICP) level therein was measured using the kit (Takara, Japan) to calculate the amount of collagen newly synthesized. PICP level was calculated as ng/ml. […] The increasing rate of collagen biosynthesis was calculated according to the following Math Figure 1 and the results are shown in Table 2.
# Human normal fibroblasts [3] = assay: Fibroblast proliferation (MTT); details: positive control 10 ng/ml
# Experimental: Human normal fibroblasts were inoculated in a 96-well microplate (1×10^4 cells/well) containing DMEM, followed by culture at 37° C. for 24 hours. The Phaseolus radiatus extract prepared in Comparative Manufacturing Example 1, the Phaseolus radiatus liquor of yeast-fermentation prepared in Comparative Manufacturing Example 2, the Phaseolus radiatus liquor of lactic acid bacterium-fermentation prepared in Comparative Manufacturing Example 3, the Phaseolus radiatus extract of enzyme treatment-yeast fermentation prepared in Comparative Manufacturing Example 4, the Phaseolus radiatus extract of enzyme treatment-lactic acid bacterium fermentation prepared in Comparative Manufacturing Example 5, the Phaseolus radiatus extract of yeast fermentation-enzyme treatment prepared in Manufacturing Example 1 and the Phaseolus radiatus extract of lactic acid bacterium fermentation-enzyme treatment prepared in Manufacturing Example 2 were treated to the experimental group in which the final concentration of the respective extracts or liquors was 1% and medium was replaced with serum-free medium, followed by further culture for 24 hours. […] Particularly, MTT (Sigma, USA) solution (3 mg/ml) was added thereto and then Absorbance at 570 nm was measured using ELISA reader (Molecular Devices, USA). […]
compound,measurement,setting,value
CC(O)C(=O)O (stereo not drawn) [lactic acid],Proliferation rate of fibroblast (%),[1],0.0%
"O=C1O[C@H]([C@@H](O)CO)C(O)=C1O [Ascorbic acid, ascorbic acid]",Increasing rate of collagen biosynthesis (%),Human normal fibroblasts [2],72.8%
TGF-β,Proliferation rate of fibroblast (%),Human normal fibroblasts [3],186.6%
